Assay results reported in patent US20240122938A1, “METHODS AND COMPOSITIONS FOR TREATING UVEAL MELANOMA” (INSERM (INSTITUT NATIONAL DE LA SANTÉ ET DE LA RECHERCHE …, priority 2019, published 2024).

Assays:
[1] = test system: CDK4, p27 and p21 in Mel270 cells; assay: Western blot of cell cycle proteins; format: cell-based, human
Protocol: (§1) Western blotting was performed as previously described 25,26. Briefly, cell lysates (30 μg) were separated using SDS-PAGE, transferred onto a PVDF membrane and subsequently exposed to the appropriate antibodies, anti-BCL2 (ms-123-PO) was from neomarker, anti-caspase 3 (#610323) was from BD, anti-BAX (#8429) was from sigma, anti-PARP (#9542), anti-BCL-XL (#2762), anti-caspase 9 (#9502) and anti-PUMA (#4976) were from Cell Signaling Technology Inc, anti-MCL1 (#sc-819), anti-NOXA (#56169), and anti-HSP90 (#sc-13119) were from Santa Cruz biotechnology. The proteins were visualized using the ECL system (Amersham). The western blots shown are representative of at least 3 independent experiments.

[2] = test system: Mel270 xenografts; assay: Subcutaneous tumor xenograft; format: in vivo, athymic nude mice; settings: established Mel270 xenografts; 50 mg/kg intraperitoneal
Protocol: FIG. 2. Effect of ABT-263 on tumor growth in vivo effects. (A) Primary Mel270 and (B) metastatic OMM1 uveal melanoma cells were subcutaneously engrafted into athymic nude mice. Once the tumours reached 100 mm3, mice were treated daily with ABT-263. The arrow indicates the start of the treatment. The growth tumor curves were determined by measuring the tumor volume using the equation V=(L Å˜W2)/2. […] (C-D) Sub-cutaneous tumor weight from control (Ct) and ABT-263-treated mice is shown. Animal experiments were performed in accordance with French law and approved by a local institutional ethical committee. The animals were maintained in a temperature-controlled facility (22° C.) on a 12-h light/dark cycle and provided free access to food (standard laboratory chow diet from UAR, Epinay-S/Orge, France). Human Mel270 uvealmelanoma cells were subcutaneously inoculated into 8-week-old female, immune-deficient, athymic, nude FOXN1nu mice (Harlan Laboratory). When the tumors became palpable (0.1-0.2 cm3), the mice received an intraperitoneal injection of ABT-263 (50 mg/kg), dissolved in 10% DMSO 6 times per week. Control mice were injected with DMSO alone. The growth tumor curves were determined after measuring the tumor volume using the equation V=(L×W2)/2. At the end of the experiment, the mice were euthanized by cervical dislocation.

[3] = test system: ER stress molecules in Mel270 cells; assay: Western blot of ER stress molecules; format: cell-based, human
Protocol: Western blot of ER stress molecules in Mel270 cells treated with ABT-263 5 μM in the absence or presence of QVD-OPh 20 μM. Representative western blot are shown.
as §1, with “(Amersham).” for “(Amersham). The western blots shown are representative of at least 3 independent experiments.”

[4] = test system: Mel270 cells; assay: Cell death / alive cells by Annexin V/DAPI FACS; format: cell-based, human
Protocol: FIG. 5: PERK dampens ABT-263 killing activity. (A) Q-PCR analysis of PERK level in Mel270 uveal melanoma cells treated with control (siCtl) or PERK (siPERK) siRNA for 48 hr. (B) Mel270 cells were treated with control (siCtl) or PERK (siPERK) siRNA for 48 hrs before being exposed to ABT-263 3 μM for 48 hr. FACS analyses of Annexin V/DAPI double staining in […] indicate alive (white) or dead (early, late apoptosis and necrosis in light grey) cells. (C) Mel270 cells were treated with ABT-263 5 μM or GSK2606414 5 μM alone or in combination for 48 h.
(§2) Cells were seeded at a density of 100 000 cells/well, in 6-well plate and treated with ABT-263 for indicated time. Cells were harvested using accutase enzyme, washed twice with ice-cold phosphate-buffered saline, resuspended in a buffer (Hepes 250 mM, NaCl 150 mM, KCl 5 mM, MgCl2 2 mM, CaCl2) 2 mM) with DAPI (1 μg/ml) and Annexin V-Alexa Fluor 647 conjugate (1/100) and incubated for 15 minutes at room temperature (25° C.) in the dark. Samples were immediately analyzed by a flow cytometer (MACS QUANT) using a laser at 405 nm excitation with a bandpass filter at 425 nm and 475 nm for DAPI detection and a laser at 635 nm excitation with a bandpass filter at 650 nm and 665 nm for Alexa Fluor 647 dye. Annexin and DAPI mono- or double positive cells were counted as dead cells.

[5] = test system: PARP, caspase 9 and caspase 3 in primary and metastatic uveal melanoma cells; assay: Western blot of PARP and caspases; format: cell-based, human
[6] = test system: short-term cultures of primary uveal melanoma tumour; assay: Cell death in short-term cultures; format: cell-based, human; settings: data not shown
Protocol: Human uveal melanoma cell lines and short-term cultures derived from different patients with metastatic malignant melanoma cells were grown in DMEM supplemented with 7% FBS at 37° C. in a humidified atmosphere containing 5% CO2. Lipofectamine™ RNAiMAX and opti-MEM medium were purchased from Invitrogen (San Diego, CA, USA). ABT-263 was obtained from Euromedex and qVD from Clinisciences. Cells were seeded at a density of 100 000 cells/well, in 6-well plate and treated with ABT-263 for indicated time. Cells were harvested using accutase enzyme, washed twice with ice-cold phosphate-buffered saline, resuspended in a buffer (Hepes 250 mM, NaCl 150 mM, KCl 5 mM, MgCl2 2 mM, CaCl2) 2 mM) with DAPI (1 μg/ml) and Annexin V-Alexa Fluor 647 conjugate (1/100) and incubated for 15 minutes at room temperature (25° C.) in the dark. Samples were immediately analyzed by a flow cytometer (MACS QUANT) using a laser at 405 nm excitation with a bandpass filter at 425 nm and 475 nm for DAPI detection and a laser at 635 nm excitation with a bandpass filter at 650 nm and 665 nm for Alexa Fluor 647 dye. Annexin and DAPI mono- or double positive cells were counted as dead cells.

[7] = test system: primary uveal melanoma cell lines; assay: Cell death by Annexin V/DAPI staining (flow cytometry); format: cell-based, human
Protocol: as §2

[8] = test system: metastatic uveal melanoma cells; assay: as above; format: cell-based, human
Protocol: as §2

CC1(C)CCC(c2ccc(Cl)cc2)=C(CN2CCN(c3ccc(C(=O)NS(=O)(=O)c4ccc(N[C@H](CCN5CCOCC5)CSc5ccccc5)c(S(=O)(=O)C(F)(F)F)c4)cc3)CC2)C1 [ABT-263, 4-[4-[[2-(4-chlorophenyl)-5,5-dimethyl-1-cyclohexen-1-yl]methyl]-1-piperazinyl]-N-[[4-[[(1R)-3-(4-morpholinyl)-1-[(phenylthio)methyl]propyl]amino]-3-[(trifluoromethyl)sulfonyl]phenyl]sulfonyl]-benzamide]
cell cycle (reduced CDK4, increased p27 and p21) [1]: cell cycle arrest
tumor growth [2]: partially effective
ATF4 and CHOP level ([3]; Mel270 cells): enhanced
ER stress pathways (BIP, PERK, EIF2α, ATF4, IRE1α, XBP1, ATF6, CHOP) ([3]; kinetics analysis in Mel270): activates all branches of the ER stress pathways
cell death ([4]; ABT-263 3 μM): do not induce cell death
PARP cleavage and alive cell percentage, used alone ([4]; ABT-263 3 μM 48 hr): relative low effect
ABT-263 effect on viable cells combined with GSK2606414 ([4]; ABT-263 5 μM + GSK2606414 5 μM, 48 h): improved
ABT-263 effects and killing efficacy combined with PERK siRNA ([4]; siPERK 48 hrs then ABT-263 3 μM 48 hr): significantly improved
cleavage of PARP, caspase 9 and caspase 3 ([5]; primary and metastatic cells): dose-dependent cleavage
full-length PARP protein and caspase 3 zymogen ([5]; time course, data not shown): time-dependent disappearance
killing effect [6]: killing effect was also found
cell death [7]: 20-35%
cell death [8]: 80%
